From patent publication US11560358B2, “Resveratrol-piperazine co-crystals” (LETAVIS AB, priority 2018, dated 2023)
≈ marks a conversion by molar mass, not a printed value.

Test: physchem
Procedure: In situ dissolution experiments were performed with a μDISS Profiler apparatus (pION Inc., MA, USA). The system consists of an integrated diode array spectrophotometer connected to a fiber optic UV probe located directly in the reaction vessel (20 ml scintillation vial) and measures the concentration as a function of time, without filtering the solution. Measurement of the dissolution kinetics was carried out at 220 nm and 270 nm, which are optimal for the UV detection of resveratrol and […], respectively. The concentrations of the compounds in the dissolution media (water, buffer pH=4, pH=6) were calculated by means of a standard curve.
The calibration curve was obtained in a mixture of ethanol and water at 8/2 (vol/vol). Stock solutions of resveratrol and resveratrol-piperazine co-crystal, Form 1, respectively, were prepared at 10 mg/ml. The calibration was performed in a 20 ml volume.
The dissolution was performed in 25 mM phosphate buffer (Na2HPO4/KH2PO4) at pH 6, at a concentration of 1 mg/ml resveratrol and resveratrol-piperazine co-crystal, Form 1, respectively. An amount of 20 mg of each compound was dispensed in 20 ml volume of buffer. The process was monitored for 90 minutes.
The calibration was performed in a mixture of ethanol and sodium acetate buffer pH 4.0 at 8/2 (vol/vol) and final concentration of 25 mM sodium acetate. Stock solutions of resveratrol and resveratrol-piperazine co-crystal, Form 1, respectively, were prepared at 10 mg/ml in the solvent mixture. The calibration was performed in 20 ml volume.
The dissolution was performed in 25 mM sodium acetate buffer at pH 4.0, at a concentration of 1 mg/ml resveratrol and resveratrol-piperazine co-crystal, Form 1 (RP1), respectively. An amount of 20 mg compound was dispensed in 20 ml volume of buffer. The process was monitored for 90 minutes.

| solubility at 90 min (aqueous buffer, thermodynamic from solid) [µg/mL] | aqueous solubility | solubility compared to that of resveratrol (pH 4) | SMILES | time maintained in solution, pH 4 buffer versus pH 6 buffer (FIG. 14 and FIG. 13) |
| --- | --- | --- | --- | --- |
| 30 (≈ 131 µM) | – | – | Oc1ccc(C=Cc2cc(O)cc(O)c2)cc1 [resveratrol] | – |
| – | 65-100 micrograms/ml | three times higher | C1CNCCN1.Oc1ccc(C=Cc2cc(O)cc(O)c2)cc1 [resveratrol-piperazine co-crystal, Form 1] | longer than in the case of the pH 6 buffer |
